The values below come from patent publication US9029545B2, “Thienopyridine NOX2 inhibitors” (GlaxoSmithKline Intellectual Property Limited, priority 2009, dated 2015).

A value given as a limit tells only on which side of the number the result lay.

The assay addresses T1, NOX2 in differentiated HL60 cells (Homo sapiens, UniProt P04839).
T1 construct: Differentiation of HL-60 cells to granulocytes increases NOX2 expression; endogenous in cells; host or cells: HL60 cells differentiated to neutrophil-like cells with 1.3% DMSO and stimulated with PMA
T1 sequence (P04839 1-570): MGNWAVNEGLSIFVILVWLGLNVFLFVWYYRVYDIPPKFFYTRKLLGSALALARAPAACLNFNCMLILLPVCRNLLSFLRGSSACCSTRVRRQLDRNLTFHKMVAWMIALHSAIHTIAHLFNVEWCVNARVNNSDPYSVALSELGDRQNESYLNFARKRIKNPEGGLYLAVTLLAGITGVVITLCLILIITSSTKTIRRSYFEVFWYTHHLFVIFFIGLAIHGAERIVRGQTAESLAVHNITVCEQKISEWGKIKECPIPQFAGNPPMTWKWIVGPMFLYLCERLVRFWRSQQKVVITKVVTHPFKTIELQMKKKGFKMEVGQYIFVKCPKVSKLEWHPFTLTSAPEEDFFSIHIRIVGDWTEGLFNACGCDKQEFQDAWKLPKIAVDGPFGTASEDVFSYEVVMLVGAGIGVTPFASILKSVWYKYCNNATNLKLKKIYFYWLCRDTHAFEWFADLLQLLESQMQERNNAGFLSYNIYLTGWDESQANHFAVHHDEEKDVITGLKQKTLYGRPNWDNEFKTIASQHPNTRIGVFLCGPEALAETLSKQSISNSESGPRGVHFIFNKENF
T1 sequence (P13498 1-195 partner): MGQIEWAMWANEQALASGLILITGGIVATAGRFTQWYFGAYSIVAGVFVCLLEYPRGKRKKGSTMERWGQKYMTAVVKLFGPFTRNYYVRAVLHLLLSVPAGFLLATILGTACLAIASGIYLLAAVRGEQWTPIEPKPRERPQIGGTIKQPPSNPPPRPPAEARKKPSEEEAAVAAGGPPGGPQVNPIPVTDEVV
In words: HL60 cell-based assays (Assay 1 Oxyburst green BSA fluorescence, Assay 2 L-012 luminescence); result stated for at least one of them. Conditions: PMA-stimulated superoxide production in differentiated HL60 cells; at least one of Oxyburst and L012 assays; read-out: pIC50 in at least one of the HL60 assays (converted). Here is the method: In the cell-based assay, superoxide production by NOX2 was measured in differentiated HL60 cells, a human myelomonocytic leukemia cell line, using either Oxyburst (Assay1) or L012 (Assay2). Differentiation of HL-60 cells to granulocytes increases NOX2 expression. The phorbol 12-myristate 13-acetate (PMA) was used to stimulate the production of superoxide in HL60 cells by activating protein kinase C, which then activated the NADPH oxidase (NOX) enzymes. Inhibition of NOX2 enzyme was detected by the reversal of fluorescence signal (Assay1) or luminescence signal (Assay2). The control inhibitor used was diphenyleneiodonium chloride (DPI), a […] inhibitor capable of non-selectively inhibiting superoxide produced by NOX enzymes.
Assay 1: in this high-throughput screening assay, oxyburst green bovine serum albumin (BSA) was used to detect superoxide production in HL60 cells. Oxidation of Oxyburst green BSA by hydrogen peroxide as a result of the activation of NOX2 by PMA. Oxyburst green BSA fluorescence was measured at excitation 485 nm and emission 530 nm.
Assay 2: in this assay, a chemiluminescence probe, L-012 was used to detect superoxide production in HL60 cells. L-012 reacted with various types of reactive oxygen species generated by PMA-activated HL60 cells. Luminescence was measured using Tecan Infinite 500.
The HL60 cells were differentiated into neutrophil-like cells by adding 1.3% DMSO in the media for 3-7 days (Hua, J et al. (2000) Journal of Leukocyte Biology. 68:216-224). Iscove's Modified Dulbecco's Media (IMDM) with L-Glutamine and 25 mM HEPES buffer, Fetal Bovine Serum (FBS), Penicillin/Streptomycin, Oxyburst Green BSA, PBS, and HBSS buffer with Calcium Chloride and Magnesium Chloride were purchased from Invitrogen (Catalog #s: 12440-061, 10500-064, 15140-163, O-13291, 14190-250, and 14025-134 respectively). Phorbol 12-myristate 13-acetate (PMA), glucose, and CHAPS were purchased from Sigma (Catalog #s: 79346, D-9434, and C5070 respectively). Diphenyleneiodonium chloride (DPI) was purchased from Toronto Research Chemicals (Catalog #: D491500). L-012 was purchased from Wako Chemical (Catalog #: 120-04891). Dimethyl sulfoxide (DMSO) was purchased EMD Chemicals (VWR Catalog #: MX1456-1). Multidrop combi was purchased from Thermo Electron Corporation (Waltham, Mass., USA). Hummingbird nanoliter liquid dispenser was purchased from Genomics Solution (Ann Arbor, Mich., USA). 384 well low-volume plates and polypropylene 384 well clear plates were purchased from Greiner (Catalog #: 784076 and 781280 respectively). 96 well plate and 384 well plate black assay plates were purchased from Greiner (Catalog #: 655094 and 781098). 96 well plate for compound serial dilution was purchased from Corning (Catalog #: 9017). Acquest or Analyst fluorescence plate reader was purchased from LJL Biosystems/Molecular Devices (California, USA). Tecan Infinite 500 was purchased from Tecan (Switzerland).
Media for HL60 cells were kept at 4° C. for storage and were warmed to 37° C. in a water bath before use. The media components were IMDM media with 20% FBS and 1% Penicillin/Streptomycin.
Buffer to be used for compound addition and compound dilution consisted of HBSS buffer with 0.1% glucose.
Buffer to be used for cells consisted of HBSS buffer with 0.1% glucose and 0.01% CHAPS.
HL60 cells were thawed and resuspended in Cells media. The cells were centrifuged at 1200 rpm for 8 minutes. Media was aspirated and the cells were resuspended in Cells buffer. The cells were counted and resuspended to 1×10^6 cells/mL.
Full inhibition controls were dispensed using 100 nL/well of 1 mM DPI in DMSO to column 18 of a 384 well plate. Compounds were dispensed using 100 nL/well. Full activity controls were dispensed using 100 nL/well of 4 uM PMA in DMSO. Oxyburst Green BSA was added to cell solution at 10 ug/mL. Using the Multidrop, 10 uL cell solution was added to the entire assay plate. The assay plate was incubated at room temperature for 100 minutes. […]
As to `Cc1cc(NS(=O)(=O)c2cccc(Cl)c2)c2c(C)c(-c3cn[nH]c3)sc2n1` [Example 76, 3-Chloro-N-[3,6-dimethyl-2-(1H-pyrazol-4-yl)thieno[2,3-b]pyridin-4-yl]benzenesulfonamide], the IC50 was < 100 µM.
On to `Cc1cc(NS(=O)(=O)c2cccc(Cl)c2)c2c(Br)c(-c3cn[nH]c3)sc2n1` [Example 100, N-[3-Bromo-6-methyl-2-(1H-pyrazol-4-yl)thieno[2,3-b]pyridin-4-yl]-3-chlorobenzenesulfonamide], for which the IC50 was < 100 µM.
For the compound `COc1cccc(-c2c(C)sc3nc(Cl)cc(NS(=O)(=O)c4cccc(Cl)c4)c23)c1` [Example 117, 3-Chloro-N-{6-chloro-2-methyl-3-[3-(methyloxy)phenyl]thieno[2,3-b]pyridin-4-yl}benzenesulfonamide], the IC50 is < 100 µM.
